Laboratory results reported in patent publication US10532105B2, “Formulations for improving the efficacy of hydrophobic drugs” (Peptinovo Biopharma, LLC, priority 2015, dated 2020).
Non-standard residues stand in square brackets, D forms with d. No end group written: not given here. Aib = CC(C)(N)C(=O)O

Assays:
[1] = Stability of peptide/phospholipid complexes by visual inspection; assay type: physicochemical; details: SM, PC/SM 70/30
Description: Separate stock solutions of peptide and phospholipids were prepared in a solvent mixture composed of 80% tert-butyl alcohol (TBA) and 20% water to obtain separate solutions of 10 mM peptide, 20 mM 1,2-dioleoyl-sn-glycero-3-phosphocholine (DOPC) or 20 mM 1-palmitoyl-2-oleoyl-phosphatidylcholine (POPC) and 20 mM egg SM. Aliquots of stock solution were combined to obtain a final solution containing 10 mole equivalents of peptide, 42 mole equivalents of phosphatidylcholine and 18 mole equivalents of SM. The solutions were combined in a 1.5 ml glass vial, frozen (−70° C.), and lyophilized at −5 to −10° C. overnight. The resultant lyophilized cakes were rehydrated by addition of Dulbeco's phosphate buffered saline followed by gentle swirling of the contents. Formation of PALM was completed by incubating the PALM solution at 50° C. for 10 minutes. […] The qualities of the PALM preparations were evident in their appearance. A visually clear preparation indicated any nanoparticles that had formed were less than approximately 20 nm diameter.

[2] = tested on: BHK(SR-BI) cells; assay: DiI uptake from PALM or HDL by BHK(SR-BI) cells, SR-BI un-induced or induced; assay type: cell-based, hamster; details: for Increase Over Un-induced: DiI uptake, induced vs un-induced cells; for Induced DiI Uptake: SR-BI induced (10 nM mifepristone) BHK(SR-BI) cells; for Induced DiI Uptake / Un-induced DiI Uptake: 4 hours, mean ± SEM, n = 4; for Un-induced DiI Uptake: un-induced BHK(SR-BI) cells, relative to protein (HDL) or peptide (PALM) concentration
Description: SR-BI interaction studies are done with BHK(SR-BI) cells obtained from the NIH. The cells were stably transfected with an inducible human SR-BI gene by means of the GeneSwitch™ System (Invitrogen). The cells were plated (96-well plate) (8000 cells/well) in growth medium (Dulbeco's modified Eagle medium containing 10% fetal bovine serum) containing 200 ug/ml each of zeocin and hygromycin. After 24 hours incubation, the growth medium was removed and replaced with 0.2% bovine serum albumin in Dulbeco's modified Eagle medium. The medium of cells to be induced for SR-BI expression also contained 10 nM mifepristone, added from a DMSO stock solution. DMSO alone was added to the medium of uninduced cells. The induction medium was removed after 24 hours and replaced with medium containing DiI-labeled PALM (32 μg peptide/ml) or DiI-labeled HDL (19 μg protein/ml) (Kalen Biomedical, Montgomery Village, Md.). The test media were prepared by diluting an aliquot of Di-I-labeled PALM (Example 5) or the DiI-labeled HDL in 0.2% bovine serum albumin in Dulbeco's modified Eagle medium. The solutions were passed through 0.2 μm pore size, polyethersulfone, sterilization filters before use. The cells were incubated for 4 hours. Next, the cells were washed 3 times with 0.1% albumin in Dulbeco's phosphate buffered saline (with calcium and magnesium). The last wash was replaced with 200 ul/well of t-butanol/water (95%/5%). The covered plate was left to stand at ROOM TEMPERATURE for 30 min with occasional shaking. The fluorescence in each well was detected at 520 nm excitation and 580 nm emission with a 550 nm cutoff filter on a Molecular Dynamics Gemini fluorescence plate reader (FIG. 9).

| Substance | Stability by visual inspection (appearance) ([1]; POPC, C16PTX/PL mole ratio 0) | Stability by visual inspection (appearance) ([1]; POPC, C16PTX/PL mole ratio 0.1) | Increase Over Un-induced [2] | Induced DiI Uptake [2] | Un-induced DiI Uptake [2] | Stability by visual inspection (appearance) ([1]; DOPC, C16PTX/PL mole ratio 0) | Stability by visual inspection (appearance) ([1]; DOPC, C16PTX/PL mole ratio 0.1) |
| --- | --- | --- | --- | --- | --- | --- | --- |
| DVFQKLVELFNQLLEKWKQV [SEQ ID NO: 26] | Clear | Turbid | 65% | 0.81 ± 0.04 pmol/µg/mL | 0.49 ± 0.04 pmol/µg/mL |  |  |
| DVFQKL{AIB}ELFNQLLEKWKQV (DVFQKL[Aib]ELFNQLLEKWKQV) [SEQ ID NO: 25] | Clear | Clear | 245% | 0.83 ± 0.02 pmol/µg/mL | 0.24 ± 0.01 pmol/µg/mL | Clear | Clear |
| DVFQKL{AIB}ELFNQL{AIB}EKWKQV (DVFQKL[Aib]ELFNQL[Aib]EKWKQV) [SEQ ID NO: 35] |  |  | 264% | 1.26 ± 0.06 pmol/µg/mL | 0.35 ± 0.01 pmol/µg/mL |  |  |
| DVFQ{AIB}LKELFNQLLEKWKQV (DVFQ[Aib]LKELFNQLLEKWKQV) [SEQ ID NO: 3] |  |  | 88% | 0.29 ± 0.03 pmol/µg/mL | 0.16 ± 0.01 pmol/µg/mL |  |  |
| DVFQ{AIB}LKELLNQLLEKFKQV (DVFQ[Aib]LKELLNQLLEKFKQV) [SEQ ID NO: 5] |  |  | 73% | 0.93 ± 0.03 pmol/µg/mL | 0.54 ± 0.03 pmol/µg/mL |  |  |
| DV{AIB}QKFLELFNQLLEKWKQV (DV[Aib]QKFLELFNQLLEKWKQV) [SEQ ID NO: 32] | Clear | Turbid | 221% | 0.90 ± 0.03 pmol/µg/mL | 0.28 ± 0.02 pmol/µg/mL | Turbid | Turbid |
| DV{AIB}QKLFELFNQLLEKWKQV (DV[Aib]QKLFELFNQLLEKWKQV) [SEQ ID NO: 27] | Clear | Turbid | 90% | 0.66 ± 0.02 pmol/µg/mL | 0.34 ± 0.01 pmol/µg/mL | Turbid |  |
